Like-named read-outs stand apart in the source and are kept apart here.
Target: T1, Zcchc11 enzyme (Homo sapiens, UniProt Q5TAX3)
T1 construct: made in house; host or cells: HEK293 cells (Zcchc11); E. coli Rosetta II (LIN28A)
T1 sequence (Q5TAX3 212-1420): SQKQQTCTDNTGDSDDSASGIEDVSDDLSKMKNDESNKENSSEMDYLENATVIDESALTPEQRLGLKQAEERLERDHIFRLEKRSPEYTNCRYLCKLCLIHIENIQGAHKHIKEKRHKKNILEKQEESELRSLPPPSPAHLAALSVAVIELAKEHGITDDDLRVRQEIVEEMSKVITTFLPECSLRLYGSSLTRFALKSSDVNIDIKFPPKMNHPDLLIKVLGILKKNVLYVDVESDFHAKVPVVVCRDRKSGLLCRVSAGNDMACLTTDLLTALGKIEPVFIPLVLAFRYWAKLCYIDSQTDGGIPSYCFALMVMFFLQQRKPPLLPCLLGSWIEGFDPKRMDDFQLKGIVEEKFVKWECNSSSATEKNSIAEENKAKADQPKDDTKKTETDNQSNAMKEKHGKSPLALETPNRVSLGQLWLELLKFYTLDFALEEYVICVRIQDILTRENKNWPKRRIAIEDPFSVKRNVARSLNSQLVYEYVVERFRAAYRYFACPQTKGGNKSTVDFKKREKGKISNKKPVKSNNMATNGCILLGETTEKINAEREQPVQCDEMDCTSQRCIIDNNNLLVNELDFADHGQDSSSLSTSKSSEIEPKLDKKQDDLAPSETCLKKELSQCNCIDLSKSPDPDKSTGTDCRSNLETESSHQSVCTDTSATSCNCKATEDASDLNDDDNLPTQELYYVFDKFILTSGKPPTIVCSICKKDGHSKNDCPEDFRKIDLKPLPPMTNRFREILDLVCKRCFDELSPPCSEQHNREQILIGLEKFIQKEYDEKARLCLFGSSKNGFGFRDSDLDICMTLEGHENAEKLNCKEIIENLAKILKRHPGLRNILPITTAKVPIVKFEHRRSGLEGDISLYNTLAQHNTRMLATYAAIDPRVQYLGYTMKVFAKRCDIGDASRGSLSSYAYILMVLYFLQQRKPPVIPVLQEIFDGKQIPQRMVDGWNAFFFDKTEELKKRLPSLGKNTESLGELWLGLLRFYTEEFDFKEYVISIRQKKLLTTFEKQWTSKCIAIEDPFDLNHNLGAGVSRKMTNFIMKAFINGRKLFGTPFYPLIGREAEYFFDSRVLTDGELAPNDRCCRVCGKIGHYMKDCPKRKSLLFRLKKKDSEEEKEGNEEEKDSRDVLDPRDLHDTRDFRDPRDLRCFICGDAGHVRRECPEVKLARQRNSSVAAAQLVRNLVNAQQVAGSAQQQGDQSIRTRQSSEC
Assay: TUTase assay (Zcchc11 assay, Lin28a-dependent polyuridylation of pre-let-7)
Type: biochemical
Details: read-out: Potency Lin28a-dep Z11 IC50
Summary of the method: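 Polyuridylation measured as fluorescein loss when a rhodamine-labelled A20 probe anneals to U-tails added to fluorescein pre-let-7 (2 nM). Reaction: truncated Zcchc11 0.2 nM, E. coli-made LIN28A 10 nM, UTP 5 uM, HEPES pH 7.3, room temperature. Initial rates fitted to four-parameter IC50.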

[1] = Lin28a-dependent Zcchc11 (Z11) TUTase assay
[2] = LIN28A 10 nM, Zcchc11 0.2 nM, 5′-fluorescein pre-let-7 miRNA 2 nM, UTP 5 uM, room temperature, 30 minutes pre-incubation
[3] = Lin28a-dependent Zcchc11 (Z11) TUTase activity

Row | Compound | IC50 [1] [nM] | further results
1 | CN(C)C1CN(c2ccc(-n3cc(C(=O)O)c(=O)c4cc(F)c(N5C[C@H](c6cccnc6)C[C@@H]5COc5ncccc5Cl)cc43)cn2)C1 [Example 61, 7-[(2R)-2-[[(3-Chloropyridin-2-yl)oxy]methyl]-4-(pyridin-3-yl)pyrrolidin-1-yl]-1-[6-[3-(dimethylamino)azetidin-1-yl]pyridin-3-yl]-6-fluoro-4-oxoquinoline-3-carboxylic acid] |  | IC50 [2]: ≤ 1000 nM
2 | O=C(O)c1cn(-c2ccc3c(c2F)CCN3)c2cc(N3CCC[C@@H]3COc3ccccn3)c(F)cc2c1=O [Compound 216, 6-Fluoro-1-(4-fluoro-2,3-dihydro-1H-indol-5-yl)-4-oxo-7-[(2R)-2-[(pyridin-2-yloxy)methyl]pyrrolidin-1-yl]quinoline-3-carboxylic acid] |  | IC50 [3]: ≤ 1000 nM
3 | CC1CCN(c2cc3c(cc2Cl)c(=O)c(C(=O)O)cn3-c2ccc(N3CC(N(C)C)C3)nc2)C1COc1nc(N(C)C)ccc1Cl (stereo not drawn) [Compound 332, 6-Chloro-7-[2-({[3-chloro-6-(dimethyl-amino)pyridin-2-yl]oxy}methyl)-3-methyl-pyrrolidin-1-yl]-1-{6-[3-(dimethyl-amino)azetidin-1-yl]pyridin-3-yl}-4-oxoquinoline-3-carboxylic acid] |  | IC50 [3]: ≤ 1000 nM
4 | CO/N=C1/C[C@H](COc2nc(OC)ccc2Cl)N(c2cc3c(cc2Cl)c(=O)c(C(=O)O)cn3-c2ccc(N3CC(N(C)C)C3)nc2)C1 [Example 69, 6-chloro-7-[(2R,4Z)-2-[[(3-chloro-6-methoxypyridin-2-yl)oxy]methyl]-4-(methoxyimino)pyrrolidin-1-yl]-1-[6-[3-(dimethylamino)azetidin-1-yl]pyridin-3-yl]-4-oxoquinoline-3-carboxylic acid] |  | IC50 [2]: ≤ 1000 nM
5 | CN(C)C1CN(c2ccc(-n3cc(C(=O)O)c(=O)c4cc(Cl)c(N5CC(c6cn[nH]c6)C[C@@H]5COc5ncccc5Cl)cc43)cn2)C1 (stereo partly drawn) [Compound 304, 6-chloro-7-((2R)-2-(((3-chloropyridin-2-yl)oxy)methyl)-4-(1H-pyrazol-4-yl)pyrrolidin-1-yl)-1-(6-(3-(dimethyl-amino)azetidin-1-yl)pyridin-3-yl)-4-oxo-1,4-dihydro-quinoline-3-carboxylic acid] |  | IC50 [3]: ≤ 1000 nM
6 | CN(C)C1CN(c2ccc(-n3cc(C(=O)O)c(=O)c4cc(Cl)c(N5C(COc6ncccc6Cl)CCS5(=O)=O)cc43)cn2)C1 (stereo not drawn) [Example 47, 6-chloro-7-(3-(((3-chloropyridin-2-yl)oxy)methyl)-1,1-dioxidoisothiazolidin-2-yl)-1-(6-(3-(dimethylamino)azetidin-1-yl)pyridin-3-yl)-4-oxo-1,4-dihydroquinoline-3-carboxylic acid] |  | IC50 [2]: ≤ 1000 nM
7 | CN(C)C1CN(c2ccc(-n3cc(C(=O)O)c(=O)c4cc(Cl)c(N5CCC[C@@H]5COc5nccn6ccnc56)cc43)cn2)C1 [Compound 172, (R)-6-chloro-1-(6-(3-(dimethyl-amino)azetidin-1-yl)pyridin-3-yl)-7-(2-((imidazo [1,2-a]pyrazin-8-yloxy)methyl)pyrrolidin-1-yl)-4-oxo-1,4-dihydro-quinoline-3-carboxylic acid] |  | IC50 [3]: ≤ 1000 nM
8 | CN(C[C@H]1CCCN1c1cc2c(cc1F)c(=O)c(C(=O)O)cn2-c1ccc(O)cc1)c1ncccc1Cl [Example 10, (R)-7-(2-(((3-chloropyridin-2-yl)(methyl)amino)methyl)pyrrolidin-1-yl)-6-fluoro-1-(4-hydroxyphenyl)-4-oxo-1,4-dihydroquinoline-3-carboxylic acid] |  | IC50 [2]: 1000 to 10000 nM
9 | O=C(O)c1cn(C2CN(CCO)C2)c2cc(N3CCC[C@@H]3COc3ncccc3Cl)c(Cl)cc2c1=O [Example 34, 6-Chloro-7-[(2R)-2-{[(3-chloropyridin-2-yl)oxy]methyl}pyrrolidin-1-yl]-1-[1-(2-hydroxyethyl)azetidin-3-yl]-4-oxo-1,4-dihydroquinoline-3-carboxylic acid] |  | IC50 [2]: 1000 to 10000 nM

Further lines, with some results ahead:

Row | IC50 [1] [nM] | Compound | further results
10 | ≤ 1000 | CN(C)C1CN(c2ccc(-n3cc(C(=O)O)c(=O)c4cc(Cl)c(N5CCC[C@@H]5COc5ncco5)cc43)cn2)C1 [Example 587, (R)-6-chloro-1-(6-(3-(dimethylamino)azetidin-1-yl)pyridin-3-yl)-7-(2-((oxazol-2-yloxy)methyl)pyrrolidin-1-yl)-4-oxo-1,4-dihydroquinoline-3-carboxylic acid] | 
11 | 1000 to 10000 | O=C(O)c1cn(-c2ccccc2CO)c2cc(N3CCC[C@@H]3COc3ccccn3)c(F)cc2c1=O [Example 403, (R)-6-fluoro-1-(2-(hydroxymethyl)phenyl)-4-oxo-7-(2-((pyridin-2-yloxy)methyl)pyrrolidin-1-yl)-1,4-dihydroquinoline-3-carboxylic acid] | 
12 | 1000 to 10000 | Cc1cccnc1OC[C@H]1CCCN1c1cc2c(cc1Cl)c(=O)c(C(=O)O)cn2C1CNC1 [Example 366, 1-(Azetidin-3-yl)-6-chloro-7-[(2R)-2-{[(3-methyl-pyridin-2-yl)oxy]methyl}pyrrolidin-1-yl]-4-oxo-1,4-dihydroquinoline-3-carboxylic acid] | 
13 | ≤ 1000 | O=C(O)c1cn(-c2ccccn2)c2cc(N3CCC[C@@H]3COc3ncccc3Cl)c(Cl)cc2c1=O [Example 499, (R)-6-chloro-7-(2-(((3-chloropyridin-2-yl)oxy)methyl)pyrrolidin-1-yl)-4-oxo-1-(pyridin-2-yl)-1,4-dihydroquinoline-3-carboxylic acid] | 
14 | ≤ 1000 | O=C(O)c1cn(-c2ccc3[nH]ccc3c2F)c2cc(N3CCC[C@@H]3COc3ccccn3)c(F)cc2c1=O [Example 438, (R)-6-fluoro-1-(4-fluoro-1H-indol-5-yl)-4-oxo-7-(2-((pyridin-2-yloxy)methyl)pyrrolidin-1-yl)-1,4-dihydroquinoline-3-carboxylic acid] | 
15 | ≤ 1000 | Cc1cccnc1OC[C@H]1CCCN1c1cc2c(cc1Cl)c(=O)c(C(=O)O)cn2-c1ccc2[nH]cnc2c1 [Example 444, (R)-1-(1H-benzo[d]imidazol-5-yl)-6-chloro-7-(2-(((3-methylpyridin-2-yl)oxy)methyl)pyrrolidin-1-yl)-4-oxo-1,4-dihydroquinoline-3-carboxylic acid] | 
16 | ≤ 1000 | CN(C)C1CN(c2ccc(-n3cc(C(=O)O)c(=O)c4cc(Cl)c(N5CCC[C@@H]5COc5ncccc5F)cc43)cn2)C1 [Example 526, (R)-6-chloro-1-(6-(3-(dimethylamino)azetidin-1-yl)pyridin-3-yl)-7-(2-(((3-fluoropyridin-2-yl)oxy)methyl)pyrrolidin-1-yl)-4-oxo-1,4-dihydroquinoline-3-carboxylic acid] | 
17 | ≤ 1000 | COc1ccc(Cl)c(OC[C@H]2C[C@H]3C[C@H]3N2c2nc3c(cc2Cl)c(=O)c(C(=O)O)cn3-c2ccc(N3CC(N(C)C)C3)nc2)n1 [Example 677, 6-chloro-7-((1R,3R,5R)-3-(((3-chloro-6-methoxypyridin-2-yl)oxy)methyl)-2-azabicyclo[3.1.0]hexan-2-yl)-1-(6-(3-(dimethylamino)azetidin-1-yl)pyridin-3-yl)-4-oxo-1,4-dihydro-1,8-naphthyridine-3-carboxylic aci] | 
18 | 1000 to 10000 | O=C(O)c1cn(-c2ccc(O)nn2)c2cc(N3CCC[C@@H]3COc3ccccn3)c(F)cc2c1=O [Example 410, (R)-6-fluoro-1-(6-hydroxypyridazin-3-yl)-4-oxo-7-(2-((pyridin-2-yloxy)methyl)pyrrolidin-1-yl)-1,4-dihydroquinoline-3-carboxylic acid] | 
